Assay results: US7030145B2, “Pyridinyl derivatives for the treatment of depression” (Bristol-Myers Squibb Company, priority 2003, dated 2006)

Experiments:
[1] = target: T1, cloned human CRF-R1 receptors (Homo sapiens, UniProt P34998); experiment: CRF-R1 receptor binding assay (inhibition of 125I-ovine-CRF binding to cell membranes); details: membranes of 293EBNA cells transfected with hCRFR1, class d = reported as percent inhibition at 10 μM, figures not given, read-out: activity (Ki class in the CRF assays)
T1 construct: the coding region was amplifies by PCR from start to stop codons; expressed in transfected cells; membranes
T1 sequence (P34998 24-415): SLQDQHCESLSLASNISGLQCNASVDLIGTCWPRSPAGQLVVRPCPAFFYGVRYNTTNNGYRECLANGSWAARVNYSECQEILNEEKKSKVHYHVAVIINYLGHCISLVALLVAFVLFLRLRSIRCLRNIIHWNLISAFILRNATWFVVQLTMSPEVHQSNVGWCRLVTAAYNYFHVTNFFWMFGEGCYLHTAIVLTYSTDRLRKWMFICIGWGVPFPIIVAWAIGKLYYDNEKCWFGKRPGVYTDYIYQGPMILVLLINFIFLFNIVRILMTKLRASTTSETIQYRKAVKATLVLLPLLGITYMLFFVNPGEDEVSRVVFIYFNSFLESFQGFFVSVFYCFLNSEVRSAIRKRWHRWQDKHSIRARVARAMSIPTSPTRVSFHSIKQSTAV
Description: The following is a description of the isolation of cell membranes containing cloned human CRF-R1 receptors for use in a standard binding assay as well as a description of the assay itself.
Messenger RNA was isolated from human hippocampus. […]. The mRNA was reverse transcribed using oligo (dt) 12–18 and the coding region was amplifies by PCR from start to stop codons. The resulting PCR fragment was cloned into the EcoRV site of pGEMV, from whence the insert was reclaimed using XhoI+XbaI and cloned into the XhoI+XbaI sites of vector pm3 as (which contains a CMV promoter, the SV′t′ splice and early poly A signals, an Eptein-Barr viral origin of replication, and a hygromycin selectable marker). The resulting expression vector, called phchCRFR was transfected in 293EBNA cells and cells retaining the episome were selected in the presence of […] hygromycin. Cells surviving 4 weeks of selection in hygromycin were pooled, adapted to growth in suspension and used to generate membranes for the binding assay described below. Individual aliquots containing approximately 1×10^8 of the suspended cells were then centrifuged to form a pellet and frozen. For the binding assay a frozen pellet described above containing 293EBNA cells transfected with hCRFR1 receptors is homogenized in 10 mL of ice cold tissue buffer (50 mM HEPES buffer pH 7.0, containing 10 MM MgCl2, 2 mM EGTA, 1 μg/mL apotinin, 1 μg/mL leupeptin and 1 μg/mL pepstatin). The homoginate is centrifuged at 40,000×g for 12 min and the resulting pellet rehomogenized in 10 mL of tissue buffer. After another centrifugation at 40,000×g for 12 min, the pellet is resuspended to a protein concentration of 360 μg/mL to be used in the assay.
Binding assays are performed in 96 well plates; each well having a 300 μL capacity. To each well is added 50 μL of test drug dilutions (final concentration of drugs range from 10^−10–10^−5 M), 100 μL of ^125I-ovine-CRF (^125I-o-CRF) (final concentration 150 pM) and 150 μL of the cell homoginate described above. Plates are then allowed to incubate at room temperature for 2 hours before filtering the incubate over GF/F filters (presoaked with 0.3% polyethyleneimine) using an appropriate cell harvester. Filters are rinsed 2 times with ice cold assay buffer before removing individual filters and assessing them for radioactivity on a gamma counter.
Curves of the inhibition of ^125I-o-CRF binding to cell membranes at various dilutions of test drug are analyzed by the iterative curve fitting program LIGAND [P. J. Munson and D. Rodbard, Anal. Biochem., 107:220 (1980), which provides Ki values for inhibition which are then used to assess biological activity. […]
Messenger RNA was isolated from human hippocampus. The mRNA was isolated from human hippocampus. The mRNA was reverse transcribed using oligo (dt) 12–18 and the coding region was amplifies by PCR from start to stop codons. The resulting PCR fragment was cloned into the EcoRV site of pGEMV, from whence the insert was reclaimed using XhoI+XbaI and cloned into the XhoI+XbaI sites of vector pm3 as (which contains a CMV promoter, the SV′t′ splice and early poly A signals, an Eptein-Barr viral origin of replication, and a hygromycin selectable marker). The resulting expression vector, called phchCRFR was transfected in 293EBNA cells and cells retaining the episome were selected in the presence of […] hygromycin. Cells surviving 4 weeks of selection in hygromycin were pooled, adapted to growth in suspension and used to generate membranes for the binding assay described below. […]
A frozen pellet described above containing 293EBNA cells transfected with hCRFR1 receptors or the rat frontal cortex tissue dissected from frozen rat brains was prepared as the source of membranes expressing CRF1 receptors used in binding assays. […]

| melting point [°C] | Ki [1] [µM] | SMILES |
| --- | --- | --- |
| 136 to 138 | ≤ 0.1 | Cc1cc(C)c(Nc2nc(C)ccc2S(=O)(=O)c2ccc(OCc3cccc(F)c3F)cc2)c(C)c1 [Example 33, {3-[4-(2,3-Difluorobenzyloxy)-benzenesulfonyl]-6-methylpyridin-2-yl}-(2,4,6-trimethylphenyl)-amine] |
| 139 to 141 | 0.1 to 0.5 | Cc1cc(C)c(Nc2nc(C)ccc2S(=O)(=O)c2ccc(F)c(Cl)c2)c(C)c1 [Example 37, [3-(3-Chloro-4-fluorobenzenesulfonyl)-6-methylpyridin-2-yl]-(2,4,6-trimethylphenyl)-amine] |
| 140 to 141 | ≤ 0.1 | Cc1cc(C)c(Nc2nc(C)ccc2S(=O)(=O)c2ccc(Br)cc2)c(C)c1 [Example 46, [3-(4-Bromobenzenesulfonyl)-6-methylpyridin-2-yl]-(2,4,6-trimethylphenyl)-amine] |
| 222 to 225 | ≤ 0.1 | Cc1cc(C)c(Nc2nc(C)ccc2S(=O)(=O)c2ccc(C(=O)c3ccccc3)cc2)c(C)c1 [Example 54, {4-[6-Methyl-2-(2,4,6-trimethylphenylamino)-pyridine-3-sulfonyl]-phenyl}-phenyl-methanone] |
| 132 to 134 | 0.1 to 0.5 | CC(=O)OCc1ccc(S(=O)(=O)c2ccc(C)nc2Nc2c(C)cc(C)cc2C)cc1 [Example 55, Acetic acid 4-[6-methyl-2-(2,4,6-trimethylphenylamino)-pyridine-3-sulfonyl]-benzyl ester] |
| 87 to 88 | 0.1 to 0.5 | COc1cccc(S(=O)(=O)c2ccc(C)nc2Nc2c(C)cc(C)cc2C)c1 [Example 56, [3-(3-Methoxybenzenesulfonyl)-6-methylpyridin-2-yl]-(2,4,6-trimethylphenyl)-amine] |
| 196 to 197 | 0.1 to 0.5 | Cc1cc(C)c(Nc2nc(C)ccc2S(=O)(=O)c2cccc(O)c2)c(C)c1 [Example 57, 3-[6-Methyl-2-(2,4,6-trimethylphenylamino)-pyridine-3-sulfonyl]-phenol] |
| 96 to 97 | 0.1 to 0.5 | CCOc1cccc(S(=O)(=O)c2ccc(C)nc2Nc2c(C)cc(C)cc2C)c1 [Example 58, [3-(3-Ethoxybenzenesulfonyl)-6-methylpyridin-2-yl]-(2,4,6-trimethylphenyl)-amine] |

Second part, the compound before the results:

| SMILES | melting point [°C] | Ki [1] [µM] |
| --- | --- | --- |
| Cc1cc(C)c(Nc2nc(C)ccc2S(=O)(=O)c2ccc(OCc3ccc(C#N)cc3)cc2)c(C)c1 [Example 23, 4-{4-[6-Methyl-2-(2,4,6-trimethylphenylamino)-pyridine-3-sulfonyl]-phenoxymethyl}-benzonitrile] | 208 to 210 | 0.1 to 0.5 |
| Cc1cc(C)c(Nc2nc(C)ccc2S(=O)(=O)c2ccc(OCc3cccc(C#N)c3)cc2)c(C)c1 [Example 24, 3-{4-[6-Methyl-2-(2,4,6-trimethylphenylamino)-pyridine-3-sulfonyl]-phenoxymethyl}-benzonitrile] | 155 to 158 | ≤ 0.1 |
| COC(=O)c1cccc(COc2ccc(S(=O)(=O)c3ccc(C)nc3Nc3c(C)cc(C)cc3C)cc2)c1 [Example 25, 3-{4-[6-Methyl-2-(2,4,6-trimethylphenylamino)-pyridine-3-sulfonyl]-phenoxymethyl}-benzoic acid methyl ester] | 148 to 150 | ≤ 0.1 |
| COc1cccc(COc2ccc(S(=O)(=O)c3ccc(C)nc3Nc3c(C)cc(C)cc3C)cc2)c1 [Example 26, {3-[4-(3-Methoxybenzyloxy)-benzenesulfonyl]-6-methylpyridin-2-yl}-(2,4,6-trimethylphenyl)-amine] | 124 to 126 | ≤ 0.1 |
| COc1ccccc1COc1ccc(S(=O)(=O)c2ccc(C)nc2Nc2c(C)cc(C)cc2C)cc1 [Example 27, {3-[4-(2-Methoxybenzyloxy)-benzenesulfonyl]-6-methylpyridin-2-yl}-(2,4,6-trimethylphenyl)-amine] | 148 to 150 | ≤ 0.1 |
| Cc1cc(C)c(Nc2nc(C)ccc2S(=O)(=O)c2ccc(OCc3ccccc3C#N)cc2)c(C)c1 [Example 28, 2-{4-[6-Methyl-2-(2,4,6-trimethylphenylamino)-pyridine-3-sulfonyl]-phenoxymethyl}-benzonitrile] | 208 to 210 | ≤ 0.1 |
| Cc1cc(C)c(Nc2nc(C)ccc2S(=O)(=O)c2ccc(OCc3ccccc3[N+](=O)[O-])cc2)c(C)c1 [Example 29, {6-Methyl-3-[4-(2-nitrobenzyloxy)-benzenesulfonyl]-pyridin-2-yl}-(2,4,6-trimethylphenyl)-amine] | 153 to 155 | ≤ 0.1 |
| COc1cc(COc2ccc(S(=O)(=O)c3ccc(C)nc3Nc3c(C)cc(C)cc3C)cc2)cc(OC)c1 [Example 30, {3-[4-(3,5-Dimethoxybenzyloxy)-benzenesulfonyl]-6-methyl-pyridin-2-yl}-(2,4,6-trimethylphenyl)-amine] | 107 to 109 | ≤ 0.1 |
| COc1ccc(OC)c(COc2ccc(S(=O)(=O)c3ccc(C)nc3Nc3c(C)cc(C)cc3C)cc2)c1 [Example 31, {3-[4-(2,5-Dimethoxybenzyloxy)-benzenesulfonyl]-6-methyl-pyridin-2-yl}-(2,4,6-trimethylphenyl)-amine] | 128 to 130 | ≤ 0.1 |
| COc1cccc(COc2ccc(S(=O)(=O)c3ccc(C)nc3Nc3c(C)cc(C)cc3C)cc2)c1OC [Example 32, {3-[4-(2,3-Dimethoxybenzyloxy)-benzenesulfonyl]-6-methylpyridin-2-yl}-(2,4,6-trimethylphenyl)-amine] | 124 to 126 | ≤ 0.1 |
| Cc1cc(C)c(Nc2nc(C)ccc2S(=O)(=O)c2ccc(OCc3c(F)cccc3[N+](=O)[O-])cc2)c(C)c1 [Example 34, {3-[4-(2-Fluoro-6-nitrobenzyloxy)-benzenesulfonyl]-6-methyl-pyridin-2-yl}-(2,4,6-trimethylphenyl)-amine] | 132 to 134 | ≤ 0.1 |
| COc1ccc(C(C)=O)cc1COc1ccc(S(=O)(=O)c2ccc(C)nc2Nc2c(C)cc(C)cc2C)cc1 [Example 35] | 141 to 143 | 0.1 to 0.5 |
| Cc1cc(C)c(Nc2nc(C)ccc2S(=O)(=O)c2ccc(OCc3c(C)cccc3C)cc2)c(C)c1 [Example 36, {3-[4-(2,6-Dimethylbenzyloxy)-benzenesulfonyl]-6-methyl-pyridin-2-yl}-(2,4,6-trimethylphenyl)-amine] | 136 to 138 | ≤ 0.1 |
| COc1cc(COc2cccc(S(=O)(=O)c3ccc(C)nc3Nc3c(C)cc(C)cc3C)c2)cc(OC)c1 [Example 63, {3-[3-(3,5-Dimethoxybenzyloxy)-benzenesulfonyl]-6-methylpyridin-2-yl}-(2,4,6-trimethylphenyl)-amine] | 120 to 121 | 0.1 to 0.5 |
